The values that follow come from patent US8206970B2, “Production of 2-butanol and 2-butanone employing aminobutanol phosphate phospholyase” (Butamax(TM) Advanced Biofuels LLC, priority 2006, dated 2012).

Experiment [1] deals with Erwinia amino alcohol O-phosphate lyase. Description: activity of amino alcohol O-phosphate lyase towards aminobutanol O-phosphate and stereoisomers (MBTH derivatization, HPLC). It is filed as biochemical, Erwinia carotovora subsp. atroseptica. Conditions: for conversion of substrate to ketone product: 100 μg cell free extract, 10 mM substrate, 0.1 mM PLP, pH 7.8, 37° C. overnight; for product yield / activity compared among substrates: same conditions, comparison between substrate isomers. On the procedure: 2-Butanone can also be detected by derivatization with 3-methyl-2-benzothiazolinone hydrazone (MBTH). An aqueous solution containing 2-butanone is mixed with an equal volume of an aqueous solution of 6 mg/mL MBTH in 375 mM glycine-HCl (pH 2.7) and incubated at 100° C. for 3 min. The resulting MBTH-derivatized samples are analyzed on a 25 cm×4.6 mm (id) Supelosil LC-18-D5 5 μm column (Supelco) using a mobile phase of 55% acetonitrile in water at a flow rate of 1 mL/min. The 2-butanone derivative appears as two peaks (cis and trans isomers) with retention times of approximately 12.3 and 13.3 min and absorbance maxima of 230 and 307 nm.
The activity of the amino alcohol O-phosphate lyase towards the aminobutanol O-phosphate substrates was studied under the same conditions as described above. The reaction was carried out at 37° C. overnight in a 1 mL reaction that contained 100 μg of cell free extract of E. coli TOP10/pBAD.KA-AT, 10 mM aminobutanol O-phosphate (either the mixture of (R,R)+(S,S) or the mixture of (R,S) +(S,R) isomers described in Example 15) in 100 mM Tris-HCI, pH 7.8, with 0.1 mM PLP. An aliquot of 100 μL reaction mixture was removed and the 2-butanone product was detected using the MBTH derivatization method described in the General Methods. […] Therefore the Erwinia amino alcohol O-phosphate lyase is an aminobutanol phosphate phospho-lyase in addition to an aminopropanol phosphate phospho-lyase.
The activity of the Erwinia amino alcohol O-phosphate lyase towards various stereoisomers of aminopropanol O-phosphate and aminobutanol O-phosphate was studied under the same conditions as described above. […] Both propanone and butanone products were derivatized by MBTH, and detected by HPLC as described in General Methods.

Experiment [2] relates to Klebsiella pneumoniae glycerol dehydratase. The experiment in a line: glycerol dehydratase butanediol dehydratase activity. The conditions noted are these: crude cell free extract of KLP23/pSYCO12, 80 mM HEPES pH 8.2, 37° C., 12 μM coenzyme B12, 10 mM substrate. The class given is biochemical. An excerpt: Glycerol dehydratase (E.C. 4.2.1.30) and diol dehydratase (E.C. 4.2.1.28), while structurally related, are often distinguished in the art based on various differences that include substrate specificity. […] The recombinant E. coli strain KLP23/pSYCO1 2, comprising Klebsiella pneumoniae genes encoding the multiple subunits of glycerol dehydratase (alpha: SEQ ID NO:145 (coding region) and 146 (protein); beta: SEQ ID NO: 147 (coding region) and 148 (protein); and gamma: SEQ ID NO: 149 (coding region) and 150 (protein)) and Klebsiella pneumoniae genes encoding the multiple subunits of glycerol dehydratase reactivase (large subunit, SEQ ID NO: 151 (coding region) and 152 (protein); and small subunit, SEQ ID NO: 153 (coding region) and 154 (protein)), is described in Emptage et al. U.S. Pat. No. 6,514,733 and in WO 2003089621, which are herein incorporated by reference. A crude, cell free extract of KLP23/pSYCO12 was prepared by methods known to one skilled in the art. […] The formation of 2-butanone was monitored by HPLC (Shodex SH-1011 column and SH-G guard column with refractive index detection; 0.01 M H2SO4 as the mobile phase at a flow rate of 0.5 mL/min and a column temperature of 50° C.; 2-butanone retention time=40.2 min). The rate of 2-butanone formation by the glycerol dehydratase preparation was determined to be 0.4 nmol/min/mg of crude protein.

The subject of experiment [3] is Erwinia amino alcohol O-phosphate lyase. Description: aminopropanol O-phosphate lyase assay (colorimetric, MBTH). The class given is biochemical, Erwinia carotovora subsp. atroseptica. The conditions noted are these: induced cell free extract 100 μg/mL, 10 mM substrate, 37° C. On the procedure: The PBAD.KA-AT plasmid was transformed into the E. coli TOP10 strain. A 50 mL culture of TOP10/pBAD.KA-AT strain was grown to mid log phase (OD600=0.6) in LB, 100 μg/mL ampicillin media at 37° C. with shaking at 250 rpm. The culture was induced by addition of L-arabinose to a final concentration of 0.1% (w/v), and it was further incubated at 37° C. for 5 h before harvesting by centrifugation. The cell pellet was resuspended in ice cold 50 mM Tris-HCl, pH 8.0, and disrupted by sonication on ice with a Fischer Sonic Model 300 Dismembrator (Fischer, Pittsburgh, Pa.) at 50% power, repeating four cycles of 30 seconds sonication with 60 seconds rest in-between each cycle. Each sonicated sample was centrifuged (15,000×g, 4 min, 4° C.). Clarified cell free extracts were analyzed for protein expression level and amino alcohol O-phosphate lyase activity.
The aminopropanol O-phosphate lyase assay was performed as described by Jones et al. (1973, Biochem. J. 134:167-182) and G. Gori et al. (1995, Chromatographia 40:336) The formation of propionaldehyde from aminopropanol O-phosphate was assayed calorimetrically with MBTH, which allows the detection of aldehyde formation. The reaction was performed as follows. In a 1 mL reaction, 100 μg cell free extract of E. coli TOP10/pBAD.KA-AT was added to 10 mM DL-1-amino-2-propanol O-phosphate in 100 mM Tris-HCl, pH 7.8, with 0.1 mM PLP. The reaction was incubated at 37° C. for 10 min and 30 min, with an aliquot of 100 μL reaction mixture removed at each time point and mixed with 100 μL of 6 mg/mL MBTH in 375 mM glycine-HCl, pH 2.7. This mixture was incubated at 100° C. for 3 min, cooled on ice for 15-30 s, and 1 mL of 3.3 mg/mL FeCl3.6H2O (in 10 mM HCl) was added, followed by incubation for 30 min at room temperature. The absorbance of the reaction mixture which contains the aldehyde-MBTH adduct, was measured at 670 nm. In the presence of the aminopropanol phosphate substrate, PLP and cell free extract, formation of aldehyde was detected, as indicated by an Abs670 that was higher than the control background of up to 0.3. In the absence of either the substrate or the cell free extract, no aldehyde formation was detected. In the absence of added PLP, somewhat less amount aldehyde was detected, presumably due to the presence of PLP in the cell free extract.

Experiment [4] relates to Vibrio Fluvialis APT (alanine:acetoin aminotransferase). The experiment in a line: kinetic resolution of 3-amino-2-butanol isomers with the alanine:acetoin aminotransferase. The class given is biochemical, Vibrio Fluvialis JS17. Conditions: 10 mM pyruvate, 10 mM 1:1 isomer mixture, 0.28 mg enzyme, pH 9.0, 24 h room temperature. Here is the method:
An analytical method for detection of 3-amino-2-butanol was developed based on the o-phthaldialdehyde derivatization method for amino acid determination reported by Roth [Anal. Chem. 43:880 (1971)]. A 200 μL aliquot of 1 mM 3-amino-2-butanol (mixture of isomers) was mixed with 200 μL of a 50 mM solution of borate (pH 9.5), to which was added 10 μL of 5 μL/mL 2-mercaptoethanol in ethanol and 10 μL of 10 mg/mL o-phthaldialdehdye in ethanol. The solution was incubated at room temperature for 10 min, at which time the derivative was extracted into 200 μL hexane. The hexane was separated from the aqueous solution by decanting, and 10 μL were injected onto a Chiracel OD HPLC column (Daicel Chemical Industries; Fort Lee, N.J.). The column was run isocratically with a mobile phase of 90:10 hexane:isopropanol at a rate of 1 mL/min. The derivatized isomers of 3-amino-2-butanol were detected by absorbance at 340 nm with retention times of approximately 15.7 and 16.8 min [(2S,3S) and (2R,3R)], and 18.4 and 21.9 min [(2R,3S) and (2S,3R)]. […] After 24 h at room temperature, an aliquot was removed and analyzed as described above. […] After 3 h, samples were taken from the reaction and analyzed as described above for acetoin and butanediol. […]

The subject of experiment [5] is B12-independent diol dehydratase from Clostridium glycolicum. The conditions noted are these: cited from earlier work.

As for `C[C@@H](N)COP(=O)(O)O` [(R)-2-amino-1-propanol O-phosphate], the “conversion of substrate to ketone product” value (“conversion of substrate” for short) in experiment [1] is recorded as “converted to propanone”.
Consider “(2R,3S)-3-amino-2-butanol O-phosphate and (2S,3R)-3-amino-2-butanol O-phosphate [mixture of (R,S) +(S,R) isomers]”, for which, in experiment [1], the “conversion of substrate” value was “two peaks representing the derivatized 2-butanone isomers were observed” and the “product yield / activity compared among substrates” value was “higher product yield”.
Regarding `CC(O)C(C)O` (stereo not drawn) [meso-2,3-butanediol], the “rate of 2-butanone formation” value in experiment [2] is reported as 0.4 nmol/min/mg of crude protein.
As to `C[C@@H](N)[C@@H](C)OP(=O)(O)O` (mixture of isomers) [mixture of (R,R)+(S,S), (R,R)-3-amino-2-butanol O-phosphate], the “conversion of substrate” value in experiment [1] is reported as “two peaks representing the derivatized 2-butanone isomers were observed”.
On to `CC(CN)OP(=O)(O)O` (racemic) [Aminopropanol O-phosphate, DL-1-amino-2-propanol O-phosphate], for which the “product yield / activity compared among substrates” value in experiment [1] is “highest activity”. In experiment [3] (PLP (+)), the “OD670, 10 min” value is on record as 1.229 and the “OD670, 30 min” value worked out at 2.264. Besides, in experiment [3] (PLP (−)), the “OD670, 10 min” value is listed as 0.855 and the “OD670, 30 min” value is 1.454.
For `C[C@H](N)COP(=O)(O)O` [(S)-2-amino-1-propanol O-phosphate], in experiment [1], the “conversion of substrate” value is “converted to propanone” and the “product yield / activity compared among substrates” value is “much higher”.
Consider `C[C@H](N)[C@@H](C)O` [(2R,3S) isomer, (2R,3S)-3-amino-2-butanol], for which, in experiment [4], the peak depleted is on record as 95%.
As for `CC(O)C(C)O` (stereo not drawn) [2,3-butanediol], in experiment [5], the “activity relative to the activity towards ethanediol” value is listed as “less than 1%”.
Regarding `C[C@H](O)[C@@H](C)N` [(2S,3R) isomer, (2S,3R)-3-amino-2-butanol], in experiment [4], the peak retained was over 90%.
